Changes are numbered by the printed parent chain.
Experiments:
Assay type in all cases: biochemical
[1] = target: T1, PEGylated chimeric pig-baboon uricase, wild type, SEQ ID NO: 5 (Sus scrofa, UniProt P16164, R291K/S46T/T301S); assay: Michaelis Menten kinetics of uric acid conversion, PEGylated wild type chimeric pig-baboon uricase; details: role: substrate, Table 4
T1 construct: His6 (C); made in house; host or cells: E. coli
T1 sequence (P16164 with tags, fused parts or gaps S46T/R291K/T301S limits assumed): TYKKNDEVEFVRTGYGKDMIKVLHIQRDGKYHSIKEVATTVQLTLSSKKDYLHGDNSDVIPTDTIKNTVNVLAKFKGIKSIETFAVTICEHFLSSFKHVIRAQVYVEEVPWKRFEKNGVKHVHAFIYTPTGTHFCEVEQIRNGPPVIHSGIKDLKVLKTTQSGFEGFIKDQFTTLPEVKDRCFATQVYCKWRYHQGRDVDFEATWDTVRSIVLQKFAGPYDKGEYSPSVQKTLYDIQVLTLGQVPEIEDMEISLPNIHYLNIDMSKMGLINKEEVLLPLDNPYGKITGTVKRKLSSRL
Description: (§1) PEGylation of the wild type chimeric pig-baboon uricase or its variants was performed by the following procedure: • (1) adding 50 fold molar excess methoxy-PEG-(CH2)5COO—NHS of 10 kDa in molecular weight (Chemical Name: Poly(oxy-1,2-ethanediyl), α-methyl-ω-{2-[(2,5-dioxo-1-pyrrolidinyl)oxy]-6-oxohexyloxy}; NOF America Corporation, Cat #SUNBRIGHT ME-100HS) to purified uricase protein on ice and incubating with stirring for one hour; • (2) verifying radius by DLS (14-15 nm radius ~=wild type); • (3) concentrating PEGylated protein using stirred cell with 50 kDa filter to 15 ml; • (4) loading the concentrated PEGylated protein onto a SUPERDEX 200 HILOAD 26/600 column and eluting with PBS; • (5) pooling fractions identified as being mono-disperse by DLS; • (6) concentrating the pooled fractions using a stirred cell with 50 kDa filter to 5 mg/ml.
(§2) dURC3 and the wild type chimeric pig-baboon uricase were successfully PEGylated, with an average of about 10 PEG molecules conjugated to a uricase monomer, based on SDS-PAGE and size exclusion chromatography with multi-angle static light scattering (SEC-MALS) analysis. The activity quantified by Michaelis Menten kinetic analysis, as well as the melting temperature quantified by differential scanning fluorimetry, of PEGylated dURC3 and PEGylated wild type chimeric pig-baboon uricase was determined using the methods described in Example 1.

[2] = target: T2, chimeric pig-baboon uricase, wild type, SEQ ID NO: 5 (Sus scrofa, UniProt P16164, R291K/S46T/T301S); assay: Michaelis Menten kinetics of uric acid conversion, wild type chimeric pig-baboon uricase; details: role: substrate; purified enzyme, non-linear regression; Table 3
T2 construct: His6 (C); made in house; host or cells: E. coli
T2 sequence (P16164 with tags, fused parts or gaps S46T/R291K/T301S): T1 sequence (P16164 with tags, fused parts or gaps S46T/R291K/T301S limits assumed)
Description: The monomeric form of the wild type chimeric pig-baboon uricase comprises the amino acid sequence of SEQ ID NO:5, where threonine is residue #1. The specified mutations in the chimeric pig-baboon uricase variants of this example are indexed to threonine as residue #1, as in SEQ ID NO:5. […] The expression vector pET-26b(+) encodes a His tag containing 6 histidine residues at the C-terminus of the inserted uricase gene.
(§3) The activity of the purified enzymes was quantified by Michaelis Menten kinetic analysis, using the solution phase microplate assay across a range of substrate concentrations (FIG. 4B).

[3] = target: T3, chimeric pig-baboon uricase variant 4 (dURC4), F75Q/K76N/K79N/T83Q/E90H/F96H/I100E/Y105D/V119K/K155N/F172Y/L260N/I262T, SEQ ID NO: 4 (Sus scrofa, UniProt P16164, E96H/F102H/F178Y/F81Q/I106E/I268T/K161N/K82N/K85N/L266N/R291K/S46T/T301S/T89Q/V125K/Y111D); assay: Michaelis Menten kinetics of uric acid conversion, dURC4; details: role: substrate; purified enzyme, non-linear regression; Table 3
T3 construct: purified
T3 sequence (P16164 with tags, fused parts or gaps S46T/F81Q/K82N/K85N/T89Q/E96H/F102H/I106E/Y111D/V125K/K161N/F178Y/L266N/I268T/R291K/T301S): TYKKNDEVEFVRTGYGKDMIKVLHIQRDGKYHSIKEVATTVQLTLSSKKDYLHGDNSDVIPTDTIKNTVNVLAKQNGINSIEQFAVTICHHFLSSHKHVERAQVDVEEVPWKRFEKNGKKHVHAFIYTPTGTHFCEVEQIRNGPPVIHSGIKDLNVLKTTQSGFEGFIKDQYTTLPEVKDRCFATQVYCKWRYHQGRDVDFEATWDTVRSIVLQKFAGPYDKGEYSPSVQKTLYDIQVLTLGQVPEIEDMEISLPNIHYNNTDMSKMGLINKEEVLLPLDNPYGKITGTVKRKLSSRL
Description: (§4) Variants 1 (dURC1) and 3 (dURC3) were identified as possible lead candidates. Besides the mutations according to the library design, i.e., the designed mutations of F75Q; K79N; T83Q; E90H; F96H; I100E; Y105D; V119K; F172Y; L260N; and I262T, dURC3 comprised an off-position amino acid mutation K76N. An off-position amino acid mutation is defined as having a non-designed amino acid at a non-target site. […] Specifically, in the dURC1 backbone, the following mutations were tested separately: L154T; K155D; K155N; L157H; L157T; T159E; T159Q; and S162D; and in the dURC3 backbone, the K155N mutation was tested. […] The characteristics, including yield, activity, melting temperature measured by DSF, temperature at which 50% of normal activity was lost after heating measured by heat stress activity assay, Michaelis-Menten kinetics parameters, of variants 1, 2, 3, and 4 (i.e., dURC1, dURC2, dURC3 and dURC4), as well as the wild type chimeric pig-baboon uricase, are summarized in Table 2. The amino acid sequences of dURC1, dURC2, dURC3 and dURC4 are shown as SEQ ID NO: 1, 2, 3, and 4, respectively.
as §3

[4] = target: T4, chimeric pig-baboon uricase variant 3 (dURC3), F75Q/K76N/K79N/T83Q/E90H/F96H/I100E/Y105D/V119K/F172Y/L260N/I262T, SEQ ID NO: 3 (Sus scrofa, UniProt P16164, E96H/F102H/F178Y/F81Q/I106E/I268T/K82N/K85N/L266N/R291K/S46T/T301S/T89Q/V125K/Y111D); assay: Michaelis Menten kinetics of uric acid conversion, dURC3; details: role: substrate
T4 construct: purified
T4 sequence (P16164 with tags, fused parts or gaps S46T/F81Q/K82N/K85N/T89Q/E96H/F102H/I106E/Y111D/V125K/F178Y/L266N/I268T/R291K/T301S): T3 sequence (P16164 with tags, fused parts or gaps S46T/F81Q/K82N/K85N/T89Q/E96H/F102H/I106E/Y111D/V125K/K161N/F178Y/L266N/I268T/R291K/T301S) with N155K
Description: An off-position amino acid mutation is defined as having a non-designed amino acid at a non-target site. […] Specifically, in the dURC1 backbone, the following mutations were tested separately: L154T; K155D; K155N; L157H; L157T; T159E; T159Q; and S162D; and in the dURC3 backbone, the K155N mutation was tested. […] The amino acid sequences of dURC1, dURC2, dURC3 and dURC4 are shown as SEQ ID NO: 1, 2, 3, and 4, respectively.
as §3

[5] = target: T5, chimeric pig-baboon uricase variant 2 (dURC2), F75Q/K79E/T83Q/E90H/F96H/I100H/Y105D/V119K/Y127H/K155N/F172Y/L260N, SEQ ID NO: 2 (Sus scrofa, UniProt P16164, E96H/F102H/F178Y/F81Q/I106H/K161N/K85E/L266N/R291K/S46T/T301S/T89Q/V125K/Y111D/Y133H); assay: Michaelis Menten kinetics of uric acid conversion, dURC2; details: role: substrate; purified enzyme, non-linear regression; Table 3
T5 construct: purified
T5 sequence (P16164 with tags, fused parts or gaps S46T/F81Q/K85E/T89Q/E96H/F102H/I106H/Y111D/V125K/Y133H/K161N/F178Y/L266N/R291K/T301S): T3 sequence (P16164 with tags, fused parts or gaps S46T/F81Q/K82N/K85N/T89Q/E96H/F102H/I106E/Y111D/V125K/K161N/F178Y/L266N/I268T/R291K/T301S) with N76K, N79E, E100H, Y127H, T262I
Description: as §4, §3

[6] = target: T6, PEGylated chimeric pig-baboon uricase variant dURC3, F75Q/K76N/K79N/T83Q/E90H/F96H/I100E/Y105D/V119K/F172Y/L260N/I262T, SEQ ID NO: 3 (Sus scrofa, UniProt P16164, E96H/F102H/F178Y/F81Q/I106E/I268T/K82N/K85N/L266N/R291K/S46T/T301S/T89Q/V125K/Y111D); assay: Michaelis Menten kinetics of uric acid conversion, PEGylated dURC3; details: role: substrate, Table 4
T6 construct: purified, PEGylated with 10 kDa mPEG-NHS, about 10 PEG per monomer
T6 sequence (P16164 with tags, fused parts or gaps S46T/F81Q/K82N/K85N/T89Q/E96H/F102H/I106E/Y111D/V125K/F178Y/L266N/I268T/R291K/T301S): T3 sequence (P16164 with tags, fused parts or gaps S46T/F81Q/K82N/K85N/T89Q/E96H/F102H/I106E/Y111D/V125K/K161N/F178Y/L266N/I268T/R291K/T301S) with N155K
Description: as §1, §2

[7] = target: T7, chimeric pig-baboon uricase variant 1 (dURC1), F75Q/K79E/T83Q/E90H/F96H/I100H/Y105D/V119K/Y127H/F172Y/L260N, SEQ ID NO: 1 (Sus scrofa, UniProt P16164, E96H/F102H/F178Y/F81Q/I106H/K85E/L266N/R291K/S46T/T301S/T89Q/V125K/Y111D/Y133H); assay: Michaelis Menten kinetics of uric acid conversion, dURC1; details: role: substrate; purified enzyme, non-linear regression; Table 3
T7 construct: purified
T7 sequence (P16164 with tags, fused parts or gaps S46T/F81Q/K85E/T89Q/E96H/F102H/I106H/Y111D/V125K/Y133H/F178Y/L266N/R291K/T301S): T3 sequence (P16164 with tags, fused parts or gaps S46T/F81Q/K82N/K85N/T89Q/E96H/F102H/I106E/Y111D/V125K/K161N/F178Y/L266N/I268T/R291K/T301S) with N76K, N79E, E100H, Y127H, N155K, T262I
Description: as §4, §3

Vmax [1]: 170 Δabs/min
Apparent kcat [2]: 30 ± 1 arbitrary units
Apparent kcat [3]: 28.0 ± 0.5 arbitrary units
higher apparent kcat compared to the wild type ([4]; dURC3 relative to wild type chimeric pig-baboon uricase): 33%
Apparent kcat ([4]; purified enzyme, non-linear regression, Table 3): 40 ± 2 arbitrary units
Apparent kcat [5]: 34 ± 1 arbitrary units
Vmax [6]: 67 Δabs/min
Apparent kcat [7]: 43 ± 2 arbitrary units
Structure (SMILES): O=c1[nH]c(=O)c2[nH]c(=O)[nH]c2[nH]1 [uric acid]
